Entries after “also recorded” stand apart in the source; their conditions may differ.

The test system of series [1] is MenA CPS. Briefly: Mice immunization, ELISA anti-MenA CPS IgG. The note with it: first study, Table 4. The class given is in vivo, BALB/c mice. As for the experimental part: (§1) Conjugates prepared as previously described from sized MenA polysaccharide with avDP8.5 and ˜15 were used as controls.
(§2) Mice received three subcutaneously (s.c.) doses (2 μg on saccharide base), two weeks apart. The neo-glycoconjugate induced an immune response at week 3, as observed by assaying the sera elicited by the conjugate against the same product coated on ELISA plates. At the serum dilutions tested no anti-CRM197 antibodies were detectable. Each of the conjugates gave antibodies recognizing the conjugated antigen and the specificity of this recognition was confirmed by competitive ELISA.
To test the immunogenicity of the conjugated carba DP6 and DP8 analogues with and without random acetylation, groups of eight BALB/c female mice were immunized with the neoglycoconjugates. Conjugated sized MenA polysaccharide was used as control. Mice were immunized with three subcutaneously (s.c.) doses (2 μg on saccharide base) two weeks apart. […]
All mice were housed under specific pathogen-free conditions. […] The antibody response induced by the glycoconjugates has been measured by ELISA. […] Finally, plates were incubated for 30 min at room temperature and read at 405 nm using the plate reader Spectramax 190. Sera titers were expressed as the reciprocal of sera dilution corresponding to a cut-off OD=1. […]

In series [2] the test system is anti-deOAc MenA serum. Nature of the series: Competitive ELISA against anti-deOAc MenA serum. The class given is binding. The protocol:
This corroborated the propensity of carba DP8 to anti-MenA antibody binding. The different fragments were then tested against an anti-deOAc MenA serum.

Series [3] relates to anti-MenA polyclonal serum. Briefly: Competitive ELISA with anti-MenA polyclonal serum, CPS as coating. The class given is binding. The note with it: serum from mice immunized with MenA-CRM197 conjugate, FIG. 5B.
Series [4] has as its system bactericidal anti-MenA mAb (JW-A1). Nature of the series: Competitive ELISA with anti-MenA mAb, CPS as coating. In kind it is binding. The note with it: FIG. 5A. From the text:
(FIG. 5C) Competitive SPR of binding between anti-MenA mAb and immobilized biotylinated CPS. MenA CPS and deOAc CPS were the positive controls and the beta-glucan Laminarin was the negative control in A and B. MenA CPS and fragments thereof were used as positive controls and anti-MenC mAb was flown on the chip as negative control in C.
An important prerequisite for the immunogenicity of the carba-analogues is their ability to mimic the natural MenA CPS. To investigate this property in vitro, binding of oligomers with the different length to a bactericidal anti-MenA mAb (JW-A1) in comparison to CPS and a medium length oligomer with avDP ˜15 was tested as described in Giuntini, S. et al., PLoS One, 2012, 7, e34272; Tsang, R. S. et al., Clin. Diagn. Lab. Immunol., 2005, 12, 152-156; and Reyes, F. et al., Biologicals, 2013, 41, 275-278.

In series [5] the test system is anti-carbaMenA DP8 serum. Nature of the series: Competitive ELISA of anti-carbaMenA DP8 serum. In kind it is binding, BALB/c female mice. The protocol: as §1, §2
For series [6] the following is noted: DSC, cited from earlier work; for Tm of the N-terminal domain: Johnson et al. 2012.

Consider “1-O-octa-(2-Acetamido-2-deoxy-5a-carba-α-D-mannopyranosyl-1-O-phosphoryl)-6-hexyl-amine [carba DP8]”, for which, in series [1], the “anti-MenA CPS response lower than the benchmark MenA-CRM197 conjugate” value is on record as 2 fold lower. This substance also registered an IC50 in series [2] of 15.9 µM. Moreover, the performance as inhibitor entry in series [3] was “performed as inhibitor comparably to the deOAc CPS”. For the same substance, in series [4], the “IC50 higher compared to the native CPS” value is given as 4 orders of magnitude. The “recognition of / binding to the anti-MenA mAb” value in series [4] (competitive ELISA, non-acetylated carbaMenA oligomers as inhibitors, CPS coating) was “binding was observed; also recorded: clearly binding to anti-MenA antibodies”. Further, the “inhibition of the binding of the anti-carbaMenA DP8 serum (in words)” value in series [5] was “to a greater extent than its conjugated form”.

As for “wild-type v2: wild-type meningococcal fHbp variant 2 from strain 2996”, in series [6], the “Tm of the N-terminal domain” value was not above 40 °C and the “Tm of C-terminal domains” value is not below 80 °C.

With “wild-type v3: wild-type meningococcal fHbp variant 3 from strain M1239”, in series [6], the “Tm of the N-terminal domain” value is not above 60 °C and the “Tm of C-terminal domains” value was not below 80 °C.
